Measured values published in patent US11952577B2, “Yarrowia lipolytica yeast strains expressing an HMG-CoA reductase having increased activity or expression” (NUCELIS LLC, priority 2009, dated 2024).

What was measured:
[1] = tested on: Yarrowia lipolytica ATCC 90904; assay: Cultivation in supplemented CYM001 media, lipid and squalene production; assay type: cell-based; settings: 30′C, 300 rpm, 120 h
Procedure: For example, Yarrowia lipolytica ATCC 90904 was cultivated in high Carbon/Nitrogen ratio media (C/N=420, Li. Y-H., Liu, B., Zhao, Z-B., and Bai. F-W. 2006 “Optimized Culture Medium and Fermentation Conditions for Lipid Production by Rhodosporidium toruloides” Chinese Journal of Biotechnology 22(4): 650-656) (hereinafter “CYM001 Media”) supplemented with 0 to 50 μg/ml terbinafine at 30′C, 300 rpm for 120 h.
In another example, Yarrowia lipolytica ATCC 90904 was cultivated in CYM001 media supplemented with 0 to 50 μg/ml Oleic acid at 30′C, 300 rpm for 120 h.
In a further example, Yarrowia lipolytica ATCC 90904 was cultivated in CYM001 media supplemented with 0 to 200 μM clethodim at 30′C, 300 rpm for 120 h.

[2] = tested on: Yarrowia lipolytica strain polg (Yeastern); assay: as above; assay type: cell-based; settings: 30′C, 300 rpm, 120 h
Source text: Various Yarrowia lipolylica strains are used for lipid and squalene production including ATCC 20688, ATCC 90811, ATCC 90904, ATCC 90812, ATCC MYA-2613, and Yeastern polg. For example, Yarrowia lipolytica strain polg (Yeastern) was cultivated in high Carbon/Nitrogen ratio media (C/N=420, Li, Y-H., Liu. B., Zhao. Z-B., and Bai, F-W. 2006 “Optimized Culture Medium and Fermentation Conditions for Lipid Production by Rhodosporidium toruloides” Chinese Journal of Biotechnology 22(4): 650-656) (hereinafter “CYM001 Media”) supplemented with 0 to 50 μg/ml terbinafine at 30′C, 300 rpm for 120 h.

Question: For `CCCCCCCC/C=C\CCCCCCCC(=O)O` [Oleic acid], which “improvement of lipid accumulation in lipid/CDW over no supplementation” value ([1]; 10 μl/ml) is on record?
Answer: 10 fold

Question: How did the “increase in the yield (mg) of squalene per 60-ml flask” value ([1]; 200 μM) turn out when `CCSC(C)CC1CC(=O)C(/C(CC)=N/OC/C=C/Cl)=C(O)C1` (centres unmarked) [clethodim] was run?
Answer: 60 fold

Question: Which results are given for `CN(C/C=C/C#CC(C)(C)C)Cc1cccc2ccccc12` [terbinafine]?
Answer: total lipid as squalene ([1]; 12.5 μg/ml or higher): up to 18.5%; total lipid as squalene ([2]; 12.5 μg/ml or higher, CYM001 media): up to 38%; total lipid/Cell Dry weight ([2]; terbinafine-supplemented CYM001 media): up to 51%
